In one series the target is C. elegans Slo-1a (Caenorhabditis elegans, UniProt Q95V25). Description: In vitro assay 1: C. elegans Slo-1a, action at a recombinant C. elegans CHO cell line (membrane potential measurement).
The nature of series [1]: log P by HPLC on reversed phase columns (Method L0; [a] acidic, [b] neutral range).
Procedure: Calibration was done with straight-chain alkan-2-ones (with 3 to 16 carbon atoms) with known log P values (measurement of log P values using retention times with linear interpolation between successive alkanones). Lambda-max-values were determined using UV-spectra from 200 nm to 400 nm and the peak values of the chromatographic signals.
For series [2], the system named is Dirofilaria immitis microfilariae. Description: In vitro assay 3: Dirofilaria immitis microfilariae (DIROIM L1), motility. Particulars: 72 h, reduction of motility vs negative control, 72 h incubation.

Some results are limits rather than exact numbers.

What is called EC50 is the concentration giving half of the maximal effect. Usually chromatographic logP stands for a lipophilicity value derived from retention on a column.

Chain of C. elegans Slo-1a (Q95V25 whole entry): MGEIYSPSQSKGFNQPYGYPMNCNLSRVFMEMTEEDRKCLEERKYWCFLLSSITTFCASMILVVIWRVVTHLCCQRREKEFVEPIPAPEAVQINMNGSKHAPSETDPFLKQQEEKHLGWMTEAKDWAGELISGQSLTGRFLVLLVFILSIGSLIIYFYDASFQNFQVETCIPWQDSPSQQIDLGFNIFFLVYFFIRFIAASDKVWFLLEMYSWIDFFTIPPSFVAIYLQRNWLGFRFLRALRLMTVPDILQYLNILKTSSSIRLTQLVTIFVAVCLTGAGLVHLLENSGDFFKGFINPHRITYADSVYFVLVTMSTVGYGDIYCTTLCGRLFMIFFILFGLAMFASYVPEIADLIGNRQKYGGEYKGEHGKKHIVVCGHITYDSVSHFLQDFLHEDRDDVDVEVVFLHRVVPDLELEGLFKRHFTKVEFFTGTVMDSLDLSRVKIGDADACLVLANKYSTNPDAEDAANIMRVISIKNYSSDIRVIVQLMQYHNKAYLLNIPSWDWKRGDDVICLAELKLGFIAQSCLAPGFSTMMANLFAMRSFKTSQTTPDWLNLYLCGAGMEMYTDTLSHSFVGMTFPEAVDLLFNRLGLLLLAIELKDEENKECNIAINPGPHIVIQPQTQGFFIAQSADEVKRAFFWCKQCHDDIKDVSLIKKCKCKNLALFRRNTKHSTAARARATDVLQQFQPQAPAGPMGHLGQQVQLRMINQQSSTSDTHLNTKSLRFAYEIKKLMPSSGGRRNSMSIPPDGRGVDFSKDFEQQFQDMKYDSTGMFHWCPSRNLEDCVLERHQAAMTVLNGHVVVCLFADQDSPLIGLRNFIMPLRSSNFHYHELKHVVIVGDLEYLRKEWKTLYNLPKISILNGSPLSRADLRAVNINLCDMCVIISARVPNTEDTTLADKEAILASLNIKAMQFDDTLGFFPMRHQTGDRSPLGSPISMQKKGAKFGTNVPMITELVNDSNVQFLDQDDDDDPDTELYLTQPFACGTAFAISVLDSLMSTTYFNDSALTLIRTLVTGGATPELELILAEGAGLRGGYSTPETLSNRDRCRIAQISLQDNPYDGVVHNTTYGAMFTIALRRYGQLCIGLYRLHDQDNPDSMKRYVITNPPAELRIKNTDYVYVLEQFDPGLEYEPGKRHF

Turning to `CC(C)c1c(C(=O)N[C@H]2CCc3ccccc32)cnc2c(-c3cncc(Cl)c3)c(C(F)(F)F)nn12` [Example 156], the EC50 at C. elegans Slo-1a was 631 nM; in series [2], below 10 µg/mL. This compound also showed a chromatographic logP in series [1] of 4.7.

Take `CC(C)c1c(C(=O)N[C@H]2CCc3ccccc32)cnc2c(-c3cccc(F)c3)c(C(F)(F)F)nn12` [Example 157]: the EC50 was 100 nM on C. elegans Slo-1a and below 10 µg/mL in series [2]. The same compound showed a chromatographic logP in series [1] of 5.02.

`CC(C)c1c(C(=O)N[C@H]2CCc3ccccc32)cnc2c(-c3ccccc3F)c(C(F)(F)F)nn12` [Example 158]: the EC50 on C. elegans Slo-1a was 158 nM; in series [2], below 10 µg/mL. This compound also came in with a chromatographic logP in series [1] of 4.76.

In the case of `CC(C)c1c(C(=O)N[C@H]2CCc3ccccc32)cnc2c(-c3cc(F)c(F)c(F)c3)c(C(F)(F)F)nn12` [Example 159], the EC50 at C. elegans Slo-1a was 1000 nM; in series [2], below 10 µg/mL. In series [1], the chromatographic logP is 5.4.

With `COc1cc(-c2c(C(F)(F)F)nn3c(C(C)C)c(C(=O)N[C@H]4CCc5ccccc54)cnc23)ccc1F` [Example 160], the figures for the EC50 (at C. elegans Slo-1a; in series [2]) were 100 nM and below 10 µg/mL, respectively. This compound showed a chromatographic logP in series [1] of 4.89.

Consider `Cc1nn2c(C(C)C)c(C(=O)N[C@H]3CCc4ccccc43)cnc2c1-c1ccccc1` [Example 174], for which the results for the EC50 (at C. elegans Slo-1a; in series [2]) were 15.8 nM and below 0.1 µg/mL, respectively. For the same compound, the chromatographic logP in series [1] turned out to be 4.59.

For the compound `Cc1nn2c(C(C)C)c(C(=O)N[C@H]3CCCc4ccccc43)cnc2c1-c1ccccc1` [Example 175], the values for the EC50 (on C. elegans Slo-1a; in series [2]) were 63.1 nM and below 10 µg/mL, respectively. In series [1], the chromatographic logP was 4.94.

`Cc1nn2c(C(C)C)c(C(=O)N[C@H]3CCOc4ccccc43)cnc2c1-c1ccccc1` [Example 176]: the values for the 50% effective concentration (EC50) (on C. elegans Slo-1a; in series [2]) were 12.6 nM and below 0.1 µg/mL, respectively. Besides, the chromatographic logP in series [1] was 4.28.

Take `COc1cccc(-c2c(C)nn3c(C(C)C)c(C(=O)N[C@H]4CCc5ccccc54)cnc23)n1` [Example 177, (S)—N-(2,3-Dihydro-1H-inden-1-yl)-7-isopropyl-3-(6-methoxypyridin-2-yl)-2-methylpyrazolo[1,5-a]pyrimidine-6-carboxamide]: the EC50 on C. elegans Slo-1a was 158 nM; in series [2] it was below 10 µg/mL. In series [1], this compound showed a chromatographic logP of 4.89.

With `Cc1nn2c(C(C)C)c(C(=O)N[C@H]3CCc4ccccc43)cnc2c1-c1cccc(F)n1` [Example 178], the EC50 at C. elegans Slo-1a was 794 nM; in series [2], below 10 µg/mL. Besides, the chromatographic logP in series [1] worked out at 4.6.

In the case of `Cc1nn2c(C(C)C)c(C(=O)N[C@H]3CCc4ccccc43)cnc2c1-c1cccc(C(F)(F)F)n1` [Example 179], the concentration giving a half-maximal response (EC50) at C. elegans Slo-1a is 398 nM; in series [2] it was below 10 µg/mL. In addition, the chromatographic logP in series [1] is 5.39.

`Cc1nn2c(C(C)C)c(C(=O)N[C@H]3CCOc4ccccc43)cnc2c1-c1ccc(Cl)cc1Cl` [Example 180]: the EC50 on C. elegans Slo-1a is 7.94 nM; in series [2], below 0.1 µg/mL. In series [1], this compound returned a chromatographic logP of 5.02.

`Cc1nn2c(C(C)C)c(C(=O)N[C@H]3CCc4ccccc43)cnc2c1-c1ccc(Cl)cc1Cl` [Example 181]: the EC50 was 12.6 nM on C. elegans Slo-1a and below 0.1 µg/mL in series [2]. This compound also yielded a chromatographic logP in series [1] of 5.31.

In the case of `Cc1nn2c(C(C)C)c(C(=O)N[C@H]3CCCc4ccccc43)cnc2c1-c1ccc(Cl)cc1Cl` [Example 182], the EC50 was 12.6 nM on C. elegans Slo-1a and below 1 µg/mL in series [2]. Also, in series [1], the chromatographic logP amounted to 5.59.

With `Cc1nn2c(C(C)C)c(C(=O)N[C@H]3CCc4ccccc43)cnc2c1-c1cccc(Cl)n1` [Example 183], the results for the EC50 (at C. elegans Slo-1a; in series [2]) were 398 nM and below 10 µg/mL, respectively. Besides, the chromatographic logP in series [1] amounted to 5.1.

Consider `Cc1nn2c(C(C)C)c(C(=O)N[C@H]3CCOc4ccccc43)cnc2c1-c1cc(F)c(F)c(F)c1` [Example 185], for which the EC50 was 12.6 nM at C. elegans Slo-1a and below 1 µg/mL in series [2]. This compound also showed a chromatographic logP in series [1] of 4.97.

In the case of `Cc1nn2c(C(C)C)c(C(=O)N[C@H]3CCOc4ccccc43)cnc2c1-c1cc(F)c(Cl)c(F)c1` [Example 190], the values for the concentration giving a half-maximal response (EC50) (on C. elegans Slo-1a; in series [2]) were 25.1 nM and below 1 µg/mL, respectively. The compound further returned a chromatographic logP in series [1] of 5.39.

For the compound `Cc1nn2c(C(C)C)c(C(=O)N[C@H]3CCOc4ccccc43)cnc2c1-c1cccc(Cl)n1` [Example 195], the values for the EC50 (at C. elegans Slo-1a; in series [2]) were 158 nM and below 10 µg/mL, respectively. The compound also yielded a chromatographic logP in series [1] of 4.85.

On to `CC(C)c1c(C(=O)N[C@H]2CCOc3ccccc32)cnc2c(-c3cc(Cl)cc(Cl)c3)c(C(F)(F)F)nn12` [Example 196], for which the EC50 was 50.1 nM on C. elegans Slo-1a and below 10 µg/mL in series [2]. Further, the chromatographic logP in series [1] stood at 5.84.

Regarding `CC(C)c1c(C(=O)N[C@H]2CCOc3ccccc32)cnc2c(-c3cc(Cl)c(F)c(Cl)c3)c(C(F)(F)F)nn12` [Example 197], the EC50 at C. elegans Slo-1a was 501 nM; in series [2], below 10 µg/mL. The same compound yielded a chromatographic logP in series [1] of 5.48.

For the compound `CSc1nn2c(C(C)C)c(C(=O)N[C@H]3CCOc4ccccc43)cnc2c1-c1cc(Cl)cc(Cl)c1` [Example 202], the EC50 at C. elegans Slo-1a was 25.1 nM; in series [2] it was below 10 µg/mL. Also, the chromatographic logP in series [1] is 6.35.

`CSc1nn2c(C(C)C)c(C(=O)N[C@H]3CCc4ccccc43)cnc2c1-c1cc(Cl)cc(Cl)c1` [Example 203]: the EC50 on C. elegans Slo-1a is 200 nM; in series [2], below 10 µg/mL. For the same compound, in series [1], the chromatographic logP was determined as 6.67.

For `Cc1nn2c(C(C)C)c(C(=O)N[C@H]3CCOc4ccccc43)cnc2c1-c1cccc(Br)c1` [Example 204], the values for the EC50 (on C. elegans Slo-1a; in series [2]) were 15.8 nM and below 0.1 µg/mL, respectively. The chromatographic logP in series [1] amounted to 5.02.

Take `Cc1nn2c(C(C)C)c(C(=O)N[C@H]3CCc4ccccc43)cnc2c1-c1cccc(Br)c1` [Example 205]: the EC50 at C. elegans Slo-1a is 25.1 nM; in series [2], below 0.1 µg/mL. The compound further had a chromatographic logP in series [1] of 5.31.

Take `Cc1nn2c(C(C)C)c(C(=O)N[C@H]3CCc4ccccc43)cnc2c1-c1ccc(Br)cc1` [Example 207]: the EC50 on C. elegans Slo-1a is 50.1 nM; in series [2], below 10 µg/mL. In series [1], this compound showed a chromatographic logP of 5.31.

As to `Cc1nn2c(C(C)C)c(C(=O)NC3COc4ccccc43)cnc2c1-c1c(F)cccc1F` (stereo not drawn) [Example 210], the EC50 at C. elegans Slo-1a was 158 nM; in series [2], below 1 µg/mL. The same compound displayed a chromatographic logP in series [1] of 3.99.

In the case of `CCS(=O)(=O)c1nn2c(C(C)C)c(C(=O)N[C@H]3CCc4ccccc43)cnc2c1-c1cc(Cl)cc(Cl)c1` [Example 211], the values for the EC50 (on C. elegans Slo-1a; in series [2]) were 1260 nM and below 10 µg/mL, respectively. Also, in series [1], the chromatographic logP came to 4.62.

Regarding `CCS(=O)(=O)c1nn2c(C(C)C)c(C(=O)N[C@H]3CCOc4ccccc43)cnc2c1-c1cc(Cl)cc(Cl)c1` [Example 212], the concentration giving a half-maximal response (EC50) was 501 nM at C. elegans Slo-1a and below 10 µg/mL in series [2]. Further, the chromatographic logP in series [1] was 4.37.

Regarding `CC(C)c1c(C(=O)N[C@H]2CCOc3ccccc32)cnc2c(-c3cc(Cl)cc(Cl)c3)c(S(=O)(=O)C(C)C)nn12` [Example 217], the figures for the half-maximal effective concentration (EC50) (on C. elegans Slo-1a; in series [2]) were 398 nM and below 10 µg/mL, respectively. This compound displayed a chromatographic logP in series [1] of 4.57.

With `Cc1nn2c(C(C)C)c(C(=O)N[C@H]3CCOc4ccccc43)cnc2c1-c1ccc(F)cc1Cl` [Example 218], the EC50 at C. elegans Slo-1a is 1.58 nM; in series [2], below 0.1 µg/mL. In series [1], this compound had a chromatographic logP of 4.51.

For `Cc1nn2c(C(C)C)c(C(=O)N[C@H]3CCOc4ccccc43)cnc2c1-c1ccc(Cl)c(F)c1` [Example 220], the EC50 on C. elegans Slo-1a is 20 nM; in series [2], below 1 µg/mL. For the same compound, in series [1], the chromatographic logP was found to be 5.08.

With `Cc1nn2c(C(C)C)c(C(=O)N[C@H]3CCOc4ccccc43)cnc2c1-c1cnc(F)c(F)c1` [Example 221], the EC50 on C. elegans Slo-1a was 10 nM; in series [2], below 1 µg/mL. The same compound returned a chromatographic logP in series [1] of 4.13.

As for `CCC(C)c1c(C(=O)N[C@H]2CCc3ccccc32)cnc2c(-c3c(F)cccc3Cl)c(C)nn12` (stereo partly drawn) [Example 222], the EC50 at C. elegans Slo-1a was 39.8 nM; in series [2] it was below 0.1 µg/mL. In series [1], this compound registered a chromatographic logP of 4.98.

Consider `Cc1nn2c(C(C)C)c(C(=O)N[C@H]3CCc4ccccc43)cnc2c1-c1c(Cl)cccc1Cl` [Example 223], for which the values for the EC50 (on C. elegans Slo-1a; in series [2]) were 12.6 nM and below 1 µg/mL, respectively. In series [1], the chromatographic logP was 4.87.

On to `Cc1nn2c(CC(C)C)c(C(=O)N[C@H]3CCc4ccccc43)cnc2c1-c1c(F)cccc1Cl` [Example 224], for which the EC50 at C. elegans Slo-1a is 31.6 nM; in series [2], below 1 µg/mL. The compound also returned a chromatographic logP in series [1] of 4.82.

Consider `Cc1nn2c(CC(C)C)c(C(=O)N[C@H]3CCOc4ccccc43)cnc2c1-c1c(F)cccc1Cl` [Example 225], for which the EC50 at C. elegans Slo-1a was 12.6 nM; in series [2], below 0.1 µg/mL. In series [1], this compound displayed a chromatographic logP of 4.56.

As to `Cc1nn2c(Cc3ccc(F)cc3)c(C(=O)N[C@H]3CCc4ccccc43)cnc2c1-c1c(F)cccc1Cl` [Example 227], the EC50 at C. elegans Slo-1a was 2000 nM; in series [2], below 10 µg/mL. This compound had a chromatographic logP in series [1] of 4.92.

For the compound `Cc1nn2c(Cc3ccc(F)cc3)c(C(=O)N[C@H]3CCOc4ccccc43)cnc2c1-c1c(F)cccc1Cl` [Example 228], the values for the EC50 (at C. elegans Slo-1a; in series [2]) were 3160 nM and below 1 µg/mL, respectively. In series [1], this compound gave a chromatographic logP of 4.72.

For `CC(C)c1c(C(=O)N[C@H]2CCc3ccccc32)cnc2c(-c3cc(Cl)cc(Cl)c3)c(S(C)(=O)=O)nn12` [Example 229], the EC50 at C. elegans Slo-1a was 63.1 nM; in series [2] it was below 1 µg/mL. The same compound returned a chromatographic logP in series [1] of 4.35.

On to `Cc1nn2c(C(C)C)c(C(=O)N[C@H]3CCOc4ccccc43)cnc2c1-c1cnccc1Cl` [Example 231], for which the values for the EC50 (at C. elegans Slo-1a; in series [2]) were 15.8 nM and below 1 µg/mL, respectively. This compound also showed a chromatographic logP in series [1] of 3.9.

As to `Cc1nn2c(C(C)C)c(C(=O)N[C@H]3CCOc4ccccc43)cnc2c1-c1ccc2c(c1)N(C)CC2` [Example 238], the EC50 on C. elegans Slo-1a is 158 nM; in series [2] it was below 10 µg/mL. For the same compound, the chromatographic logP in series [1] worked out at 4.13.

These data come from patent publication US11001590B2, “Pyrazolopyrimidine derivatives” (BAYER ANIMAL HEALTH GMBH, priority 2016, dated 2021).
